Laboratory results published in BindingDB's records for doi:10.1021/jm010246u (University of Texas At Austin, 2001).

What was measured:
[1] = target: T1, Telomerase reverse transcriptase (Homo sapiens, UniProt O14746); test: Apparent telomerase inhibition by G-quadruplex mechanism
[2] = target: T1, Telomerase reverse transcriptase; test: Apparent telomerase inhibition by primer mechanism

T1 sequence (O14746 whole entry): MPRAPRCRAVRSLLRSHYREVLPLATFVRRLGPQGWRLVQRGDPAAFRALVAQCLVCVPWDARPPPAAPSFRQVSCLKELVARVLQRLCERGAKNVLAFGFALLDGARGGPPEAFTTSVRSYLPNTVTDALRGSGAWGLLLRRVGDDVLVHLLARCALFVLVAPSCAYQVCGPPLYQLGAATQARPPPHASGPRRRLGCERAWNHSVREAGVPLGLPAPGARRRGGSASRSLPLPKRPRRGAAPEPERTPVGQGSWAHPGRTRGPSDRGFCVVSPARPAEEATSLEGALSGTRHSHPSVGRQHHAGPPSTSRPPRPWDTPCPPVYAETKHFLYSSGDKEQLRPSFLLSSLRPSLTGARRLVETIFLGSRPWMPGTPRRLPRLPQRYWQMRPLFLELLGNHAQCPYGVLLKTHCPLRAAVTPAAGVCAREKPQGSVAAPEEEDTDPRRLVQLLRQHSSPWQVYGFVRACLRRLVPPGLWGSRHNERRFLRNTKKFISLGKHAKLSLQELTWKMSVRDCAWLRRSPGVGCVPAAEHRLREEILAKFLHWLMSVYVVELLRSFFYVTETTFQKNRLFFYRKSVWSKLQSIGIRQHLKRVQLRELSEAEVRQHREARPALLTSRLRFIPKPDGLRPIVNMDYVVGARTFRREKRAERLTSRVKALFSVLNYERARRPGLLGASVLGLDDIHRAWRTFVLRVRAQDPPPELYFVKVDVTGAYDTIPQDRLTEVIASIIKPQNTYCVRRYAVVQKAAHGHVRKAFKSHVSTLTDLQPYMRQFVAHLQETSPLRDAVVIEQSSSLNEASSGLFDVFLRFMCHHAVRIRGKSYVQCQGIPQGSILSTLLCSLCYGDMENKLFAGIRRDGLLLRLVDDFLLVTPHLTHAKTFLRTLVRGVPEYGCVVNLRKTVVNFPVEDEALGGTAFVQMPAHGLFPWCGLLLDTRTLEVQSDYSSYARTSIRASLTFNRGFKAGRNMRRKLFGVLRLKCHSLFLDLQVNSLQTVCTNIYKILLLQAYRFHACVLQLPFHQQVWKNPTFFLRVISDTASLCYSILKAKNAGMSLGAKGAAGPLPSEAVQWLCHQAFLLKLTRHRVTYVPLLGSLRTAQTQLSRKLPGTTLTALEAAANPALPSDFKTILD

Compound | IC50 [1] [µM] | IC50 [2] [µM]
C[n+]1ccc(-c2c3nc(c(-c4cc[n+](C)cc4)c4ccc([nH]4)c(-c4cc[n+](C)cc4)c4nc(c(-c5cc[n+](C)cc5)c5ccc2[nH]5)C=C4)C=C3)cc1 | 8 | 
C[n+]1ccc(-c2c3nc(c(-c4cccc([N+](=O)[O-])c4)c4nc(c(-c5cc[n+](C)cc5)c5ccc([nH]5)c(-c5cccc([N+](=O)[O-])c5)c5ccc2[nH]5)C=C4)C=C3)cc1 | 25 | 
C[n+]1ccc(-c2c3nc(c(-c4cc[n+](C)cc4)c4ccc([nH]4)c(-c4cccc([N+](=O)[O-])c4)c4ccc([nH]4)c(-c4cc[n+](C)cc4)c4nc2C=C4)C=C3)cc1 | 12 | 
CC[n+]1ccc(-c2c3nc(c(-c4cc[n+](CC)cc4)c4ccc([nH]4)c(-c4cc[n+](CC)cc4)c4ccc([nH]4)c(-c4cc[n+](CC)cc4)c4nc2C=C4)C=C3)cc1 | 25 | 
C[n+]1cc(-c2ccco2)cc(-c2c3nc(c(-c4cc(-c5ccco5)c[n+](C)c4)c4ccc([nH]4)c(-c4cc(-c5ccco5)c[n+](C)c4)c4ccc([nH]4)c(-c4cc(-c5ccco5)c[n+](C)c4)c4nc2C=C4)C=C3)c1 [5,10,15,20-tetra[5-(2-furfuryl)-N-methyl-3-pyridyl]porphyrin chloride] |  | 8
